According to patent USRE38352E1, “Polymerase chain reaction assays for monitoring antiviral therapy and making therapeutic decisions in the treatment of acquired immunodeficiency syndrome” (priority 1992, dated 2003):
Values joined by “and” are separate entries in the source; they are usually repeats but may differ in a detail not shown here. Equal entries are not always repeated.

Assays:
plasma HIV RNA [1] = experiment: Plasma HIV RNA copy number by cDNA gene amplification (PCR) and enzyme-linked affinity assay; assay type: in vivo, human (HIV antibody-positive subjects)
Excerpt: After informed consent was obtained, whole blood samples were collected by venipuncture in the presence of acid-citrate-dextrose as an anticoagulant. A single plasma sample was collected from 39 HIV antibody-positive subjects who were not receiving antiretroviral therapy at the time of collection and from 33 HIV antibody-positive subjects who were currently on and had received AZT for a minimum of 3 mo.
Two plasma samples were collected from an additional 27 subjects before and 1 month after initiation of dideoxynucleoside therapy. 18 of these subjects received 500 mg/d of AZT orally. Seven subjects received a combination of zidovudine (150-600 mg/d) and 2′,3′-dideoxyinosine (ddI) (134-500 mg/d). Two patients received 500 mg/d of ddI alone (see Table I for individual subject characteristics). Finally, nine of these subjects had two plasma samples taken 1-3 wk. before initiating antiretroviral therapy and two plasma samples taken 1 and 2 mo. after commencing therapy. Plasma was separated within 4 h. by centrifugation at 500 g for 10 min. A second centrifugation was performed on the plasma at 500 g for 30 min. to remove any cellular material. 200 μl of plasma was then mixed with 200 μl of a solution containing 5M guanidinium thiocyanate, vortexed briefly, and stored at −70° C. until further use. All samples were assayed within 3 mo. of collection. To decrease variance, all specimens to be compared from the same subject were run in the same assay.
RNA was extracted from plasma by the method described in Chomczynski et al., 1987, Ann. Biochem. 162:156-159. Briefly, 200 μl of clarified plasma to which 200 μl of 5M guanidinium thiocyanate had previously been added was extracted with phenol/chloroform and precipitated with isopropanol. The resulting pellet was then washed in 75% ethanol, dried, and brought up in diethylpyrocarbonate treated, glass distilled water.
HIV RNA was transcribed to cDNA using Moloney murine leukemia virus reverse transcriptase (Bethesda Research Laboratories, Gaithersburg, Md.) by the method described in Kawasaki, 1990, “In PCR Protocols: A Guide to Methods and Applications” pp. 21-27, M. A. Innis, D. H. Gelfand, J. J. Sninsky, and T. J. White, eds. Academic Press, Berkeley, Calif. Oligomers used for amplification included SK38, SK39, and SK19 (Kellog et al., 1990, “In PCR Protocols: A Guide to Methods and Applications,” pp. 337-348, M. A. Innis, D. H. Gelfand, J. J. Sninsky, and T. J. White, eds. Academic Press, Berkeley, Calif.). Biotinylation of SK38 and horseradish peroxidase (HRP) labeling of probe SK19 were prepared as described in Levenson et al., 1990, “In PCR Protocols: A Guide to Methods and Applications,” pp. 99-112M. S. Innis, D. H. Gelfand, J. J. Sninsky, and T. J. White, eds. Academic Press, Berkeley, Calif. Amplification of HIV cDNA was carried out as follows: to a 100-μl reaction mixture was added the cDNA, 50 pmol of primers SK38 and SDK39, […] of each dNTP, 10 mM Tris (pH 8.3), 2.5 mM MgCl2, 50 mM KCl, and 2.5 U of recombiTaq DNA polymerase (Perkin-Elmer Cetus, Norwalk, Conn.). The mixture was then overlaid with 50 μl of mineral oil. Tubes were placed in a DNA thermal cycler (Perkin-Elmer Cetus) for 30 cycles of amplification with the following program: 95° C./30 s, 55° C./30s, and 72° C./60 s for denaturation, annealing, and extension, respectively. Negative and positive controls which included both high and low copy number HIV RNA and DNA were added at each step.
To detect and quantitate PCR product, 96-well microplates (Maxisorp; Nunc, Naperville, Ill.) were coated with 100 μl of a 0.1 mg/ml solution of avidin (Sigma Chemical Co., St. Louis, Mo.) in 50 mM Na2CO3 (pH 9.6) overnight at room temperature. Wells were then washed twice with PBS. Wells were then filled with 300 μl of a blocking solution containing 5X Denhardt's solution, 1% gelatin (Sigma), […] sheared herring sperm DNA (Promega Biotec, Madison, Wis.) at least overnight at 4° C. […]

plasma HIV RNA [2] = conditions: patients receiving AZT; ultracentrifugation, 40 cycles (Ottman et al.); cited from earlier work
[3] = tested on: HIV with codon 215 mutation; conditions: mutation at codon 215; cited from earlier work

Compound: Cc1cn([C@H]2C[C@H](N=[N+]=[N-])[C@@H](CO)O2)c(=O)[nH]c1=O [AZT, zidovudine]
- mean HIV RNA copy number (plasma HIV RNA [1]; 14 subjects on AZT with CD4 count <200/mm^3): 295±5 per 200 μl of plasma
- mean HIV RNA copy number (plasma HIV RNA [1]; 19 subjects on AZT with CD4 count >200/mm^3, below level of detection): 16±5 per 200 μl of plasma
- mean plasma HIV RNA copy number (plasma HIV RNA [1]; 33 subjects currently on AZT (minimum 3 mo), mean±SEM, untreated 690±360): 134±219 per 200 μl of plasma
- subjects with positive HIV RNA signal (plasma HIV RNA [1]; AZT-treated subjects with <200 CD4 cells): 9 of 14
- subjects with positive HIV RNA signal (plasma HIV RNA [1]; all subjects receiving AZT, untreated 32 of 39): 16 of 33
- Post HIV RNA (plasma HIV RNA [1]; in vivo): 2769/437 copy number/200 μl of plasma
- Pre HIV RNA (plasma HIV RNA [1]; in vivo): 2769/437 copy number/200 μl of plasma
- subjects with detectable HIV RNA signal (plasma HIV RNA [1]; in vivo): 7 of 19
- Post HIV RNA (plasma HIV RNA [1]; individual patient, 1 mo after initiation, AZT 500 mg/d): 77 copy number/200 μl of plasma and 57 copy number/200 μl of plasma and 42 copy number/200 μl of plasma and 94/94 copy number/200 μl of plasma and 0/0 copy number/200 μl of plasma (2×) and 65 copy number/200 μl of plasma and 52 copy number/200 μl of plasma and 50 copy number/200 μl of plasma and 45 copy number/200 μl of plasma and 95/95 copy number/200 μl of plasma and 0 copy number/200 μl of plasma (3×) and 72 copy number/200 μl of plasma and 925 copy number/200 μl of plasma and 90 copy number/200 μl of plasma
- Pre HIV RNA (plasma HIV RNA [1]; individual patient, before initiation of therapy): 100 copy number/200 μl of plasma and 87 copy number/200 μl of plasma and 40 copy number/200 μl of plasma and 94/94 copy number/200 μl of plasma and 0/0 copy number/200 μl of plasma (2×) and 93 copy number/200 μl of plasma and 105 copy number/200 μl of plasma and 123 copy number/200 μl of plasma and 78 copy number/200 μl of plasma and 95/95 copy number/200 μl of plasma and 301 copy number/200 μl of plasma and 958 copy number/200 μl of plasma and 2014 copy number/200 μl of plasma and 106 copy number/200 μl of plasma and 130 copy number/200 μl of plasma and 550 copy number/200 μl of plasma
- patients with detectable plasma HIV RNA signal (plasma HIV RNA [2]): 24 of 25
- decrease in zidovudine susceptibility [3]: 16 fold
